Measured values reported in patent publication US5457101A (priority 1994, dated 1995).

Tests used:
[1] = test system: cloned human 5-HT2B receptor; assay: [3H]5-HT radioligand binding, cloned human 5-HT2B receptor; details: statement in words only, no value given
[2] = studies using radiolabelled compound, residues in saliva; type: in vivo
Experimental: For example, in the treatment of adult humans, dosages of from 0.25 to 30 mg, preferably from 1 to 20 mg, per day may be used. A once a day dosage is normally sufficient, although divided doses may be administered. For treatment of gastrointestinal disorders, a dose range of from 1 to 20 mg, preferably 2.5 to 15 mg per day is suitable.

## Cc1cc2c(s1)Nc1ccccc1N=C2N1CCN(C)CC1 [2-methyl-4-(4-methyl-1-piperazinyl)-10H-thieno-[2,3-b][1,5]benzodiazepine]
[1]
  5-HT2B receptor activity: 5-HT2B receptor activity
[2]
  residues of radiolabelled compound in saliva: detected in the saliva
